biological target: T1, human GPR40 (Homo sapiens, UniProt O14842); test: Evaluation of human GPR40 agonist activity with increase in intracellular Ca2+ concentration as an index (FLIPR); type: cell-based; details: test compound 1 μM; CHO(dhfr−) cells stably expressing human GPR40; 100% = 10 μM compound of Example 153, 0% = DMSO
T1 construct: expressed in transfected cells
Experimental: Plasmid hGPR40/pAKKO-1.11H for mammalian cells expression, wherein cDNA fragment (SEQ ID NO: 1) encoding the full-length human GPR40 was incorporated into an expression vector pAKKO-1.11H (Biochimica et Biophysica Acta vol. 1219 pp. 251-259 (1994)), was transfected into CHO-dhfr(−) cells (ATCC, CRL-9096) by using Lipofectamine 2000 (Invitrogen:11668-019). After transfection, the limiting dilution-culture method was performed to select clone in selection medium (nucleic acid-free α-MEM (Invitrogen:12561-056)) containing 10% dialyzed bovine serum (Invitrogen:26400-044)). The expression level of human GPR40 mRNA was confirmed by TaqMan PCR (Life Technologies), and the intracellular calcium mobilization activity of GPR40 ligand (γ-linolenic acid) was confirmed by FLIPR (Molecular Devices), and a clone of human GPR40 expressing CHO cells was selected.
Evaluation of Human GPR40 Agonist Activity with Increase in Intracellular Ca^2+ Concentration as an Index
CHO(dhfr−) cells that stably expressed human GPR40 were suspended in MEMα (Nikken Bio Medical Laboratory) containing 10% dialyzed bovine serum (JR Scientific), 10 mM HEPES (Life Technologies), 100 U/mL penicillin, 100 μg/mL streptomycin (Life Technologies), and plated on a 384 well black/clear cell culture plate at 10,000 cells/well. After culture overnight in a CO2 incubator at 37° C., the culture supernatant was removed, and loading buffer [Ca^2+ probe attached to Calcium Kit II-iCellux (DOJINDO) was dissolved in assay buffer (20 mM HEPES, 0.1% fatty acid-free BSA (Sigma-Aldrich), 2.5 mM probenecid (DOJINDO)-containing HESS (Life Technologies))] was added at 30 μL/well. After leaving for 1 hr at room temperature under light shielding, assay buffer containing the test compound at a final concentration of 1 μM was added at 10 μL/well in FLIPR Tetra (Molecular Devices), and the fluorescence amount was successively measured. Human GPR40 agonist activity calculated using an increase in the intracellular Ca^2+ concentration as an index, wherein the activity of 10 μM of the compound of Example 153 was 100%, and the activity when DMSO was added instead of the test compound was 0%.

T1 sequence (O14842 whole entry): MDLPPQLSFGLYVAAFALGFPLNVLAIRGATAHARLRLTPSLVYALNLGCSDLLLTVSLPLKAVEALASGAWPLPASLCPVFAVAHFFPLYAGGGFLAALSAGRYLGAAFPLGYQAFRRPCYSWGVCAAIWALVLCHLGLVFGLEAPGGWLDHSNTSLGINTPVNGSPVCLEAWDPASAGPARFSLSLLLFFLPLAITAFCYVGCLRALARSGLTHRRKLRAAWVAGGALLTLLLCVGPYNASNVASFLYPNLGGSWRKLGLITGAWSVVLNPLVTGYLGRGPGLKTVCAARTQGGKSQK

Compound | activation at 1 µM
COc1ccc(C(=O)N(CC(C)(C)F)c2cccc(C)n2)c(N2CCC(COc3cc(C(CC(=O)O)C4CC4)ccn3)CC2)c1 (stereo not shown) [Example 152, 3-cyclopropyl-3-(2-((1-(2-((2-fluoro-2-methylpropyl)(6-methylpyridin-2-yl)carbamoyl)-5-methoxyphenyl)piperidin-4-yl)methoxy)pyridin-4-yl)propanoic acid] | 100%
COc1ccc(C(=O)N(CC(C)(F)F)c2cc(C)ccn2)c(N2CCC(COc3cc(C(CC(=O)O)C4CC4)ccn3)CC2)c1 (stereo not shown) [Example 147, 3-cyclopropyl-3-(2-((1-(2-((2,2-difluoropropyl)(4-methylpyridin-2-yl)carbamoyl)-5-methoxyphenyl)piperidin-4-yl)methoxy)pyridin-4-yl)propanoic acid] | 97%
COc1ccc(C(=O)N(CC(F)(F)F)c2cc(C)nc(C)n2)c(N2CCC(COc3cc(C(CC(=O)O)C4CC4)ccn3)CC2)c1 (stereo not shown) [Example 238, 3-cyclopropyl-3-(2-((1-(2-((2,6-dimethylpyrimidin-4-yl) (2,2,2-trifluoroethyl)-carbamoyl)-5-methoxyphenyl)piperidin-4-yl)methoxy)pyridin-4-yl)propanoic acid] | 101%
COc1ccc(C(=O)N(CC(C)(C)C)c2cc(C)ccn2)c(N2CCC(COc3cc(C(CC(=O)O)C4CC4)ccn3)CC2)c1 (stereo not shown) [Example 112, 3-cyclopropyl-3-(2-((1-(2-((2,2-dimethylpropyl)(4-methylpyridin-2-yl)carbamoyl)-5-methoxyphenyl)piperidin-4-yl)methoxy)pyridin-4-yl)propanoic acid] | 98%
COc1cc(N2CCC(COc3cc(C(CC(=O)O)C4CC4)ccn3)CC2)c(C(=O)N(CC(C)(C)C)c2cc(C)nc(C)n2)cn1 (stereo not shown) [Example 286, 3-cyclopropyl-3-(2-((1-(5-((2,2-dimethylpropyl) (2,6-dimethylpyrimidin-4-yl)carbamoyl)-2-methoxypyridin-4-yl)piperidin-4-yl)methoxy)pyridin-4-yl)propanoic acid] | 107%
COc1ccc(C(=O)N(CC2CC2)c2cc(C)cc(C)n2)c(N2CCC(COc3cc(C(CC(=O)O)C4CC4)ccn3)CC2)c1 (stereo not shown) [Example 244, 3-cyclopropyl-3-(2-((1-(2-((cyclopropylmethyl)(4,6-dimethylpyridin-2-yl)carbamoyl)-5-methoxyphenyl)piperidin-4-yl)methoxy)pyridin-4-yl)propanoic acid] | 99%
COc1ccc(C(=O)N(Cc2ccccn2)CC(C)(C)C)c(N2CCC(COc3cc(C(CC(=O)O)C4CC4)ccn3)CC2)c1 (stereo not shown) [Example 181, 3-cyclopropyl-3-(2-((1-(2-((2,2-dimethylpropyl)(pyridin-2-ylmethyl)carbamoyl)-5-methoxyphenyl)piperidin-4-yl)methoxy)pyridin-4-yl)propanoic acid] | 91%
COc1ccc(C(=O)N2CC(F)(F)OC(F)(F)C2)c(N2CCC(COc3cc(C(CC(=O)O)C4CC4)ccn3)CC2)c1 (stereo not shown) [Example 202, 3-cyclopropyl-3-(2-((1-(5-methoxy-2-((2,2,6,6-tetrafluoromorpholin-4-yl)carbonyl)phenyl)piperidin-4-yl)methoxy)pyridin-4-yl)propanoic acid] | 102%
Cc1cccc(N(CC(C)(C)C)C(=O)c2ccc(C#N)cc2N2CCC(COc3cc(C(CC(=O)O)C4CC4)ccn3)CC2)n1 (stereo not shown) [Example 260, 3-(2-((1-(5-cyano-2-((2,2-dimethylpropyl)(6-methylpyridin-2-yl)carbamoyl)phenyl)piperidin-4-yl)methoxy)pyridin-4-yl)-3-cyclopropylpropanoic acid] | 89%
Cc1cccc(N(CC(C)(C)C)C(=O)c2ccc(Cl)cc2N2CCC(COc3cc(C(CC(=O)O)C4CC4)ccn3)CC2)n1 (stereo not shown) [Example 266, 3-(2-((1-(5-chloro-2-((2,2-dimethylpropyl)(6-methylpyridin-2-yl)carbamoyl)phenyl)piperidin-4-yl)methoxy)pyridin-4-yl)-3-cyclopropylpropanoic acid] | 94%

The next lines start with the values.

activation at 1 µM | Compound
100% | COc1ccc(C(=O)N(CC(F)(F)F)c2ccnc(C)n2)c(N2CCC(COc3cc(C(CC(=O)O)C4CC4)ccn3)CC2)c1 (stereo not shown) [Example 239, 3-cyclopropyl-3-(2-((1-(5-methoxy-2-((2-methyl-pyrimidin-4-yl) (2,2,2-trifluoroethyl)carbamoyl)-phenyl)piperidin-4-yl)methoxy)pyridin-4-yl)propanoic acid]
89% | COc1ccc(C(=O)N(CC(F)(F)F)c2ccnc(C)c2)c(N2CCC(COc3cc(C(CC(=O)O)C4CC4)ccn3)CC2)c1 (stereo not shown) [Example 163, 3-cyclopropyl-3-(2-((1-(5-methoxy-2-((2-methylpyridin-4-yl)(2,2,2-trifluoroethyl)carbamoyl)phenyl)piperidin-4-yl)methoxy)pyridin-4-yl)propanoic acid]
101% | COc1ccc(C(=O)N(CC(C)(C)C)c2cc(C)cc(C)n2)c(N2CCC(COc3cc(C(CC(=O)O)C4CC4)ccn3)CC2)c1 (stereo not shown) [Example 243, 3-cyclopropyl-3-(2-((1-(2-((2,2-dimethylpropyl)(4,6-dimethylpyridin-2-yl)carbamoyl)-5-methoxyphenyl)piperidin-4-yl)methoxy)pyridin-4-yl)propanoic acid]
97% | COc1ccc(C(=O)N(CC(F)(F)F)c2ncccn2)c(N2CCC(COc3cc(C(CC(=O)O)C4CC4)ccn3)CC2)c1 (stereo not shown) [Example 166, 3-cyclopropyl-3-(2-((1-(5-methoxy-2-(pyrimidin-2-yl(2,2,2-trifluoroethyl)carbamoyl)phenyl)piperidin-4-yl)methoxy)pyridin-4-yl)propanoic acid]
99% | COc1ccc(C(=O)N(CC(C)C)c2cccc(C#N)c2)c(N2CCC(COc3cc(C(CC(=O)O)C4CC4)ccn3)CC2)c1 (stereo not shown) [Example 132, 3-(2-((1-(2-((3-cyanophenyl)(2-methylpropyl)carbamoyl)-5-methoxyphenyl)piperidin-4-yl)methoxy)pyridin-4-yl)-3-cyclopropylpropanoic acid]
84% | COc1ccc(C(=O)N(CC(C)(C)C#N)c2ccccn2)c(N2CCC(COc3cc(C(CC(=O)O)C4CC4)ccn3)CC2)c1 (stereo not shown) [Example 134, 3-(2-((1-(2-((2-cyano-2-methylpropyl)(pyridin-2-yl)carbamoyl)-5-methoxyphenyl)piperidin-4-yl)methoxy)pyridin-4-yl)-3-cyclopropylpropanoic acid]
103% | COc1ccc(C(=O)N(CC(C)(C)C)c2cccc(C)n2)c(N2CCC(COc3cccc(C(CC(=O)O)OC)c3)CC2)c1 (stereo not shown) [Example 269, 3-(3-((1-(2-((2,2-dimethylpropyl)(6-methylpyridin-2-yl)carbamoyl)-5-methoxyphenyl)piperidin-4-yl)methoxy)phenyl)-3-methoxypropanoic acid]
99% | COc1ccc(C(=O)N(CC(C)C)c2cc(C)ccn2)c(N2CCC(COc3cc(C(CC(=O)O)C4CC4)ccn3)CC2)c1 (stereo not shown) [Example 123, 3-cyclopropyl-3-(2-((1-(5-methoxy-2-((2-methylpropyl)(4-methylpyridin-2-yl)carbamoyl)phenyl)piperidin-4-yl)methoxy)pyridin-4-yl)propanoic acid]
100% | COc1ccc(C(=O)N(C)CC(F)(F)C(F)(F)F)c(N2CCC(COc3cc(C(CC(=O)O)C4CC4)ccn3)CC2)c1 (stereo not shown) [Example 130, 3-cyclopropyl-3-(2-((1-(5-methoxy-2-(methyl(2,2,3,3,3-pentafluoropropyl)carbamoyl)phenyl)piperidin-4-yl)methoxy)pyridin-4-yl)propanoic acid]
90% | COc1ccc(C(=O)N(CC(C)(C)C)C2CC2)c(N2CCC(COc3cc(C(CC(=O)O)C4CC4)ccn3)CC2)c1 (stereo not shown) [Example 192, 3-cyclopropyl-3-(2-((1-(2-(cyclopropyl(2,2-dimethylpropyl)carbamoyl)-5-methoxyphenyl)piperidin-4-yl)methoxy)pyridin-4-yl)propanoic acid]
104% | COc1ccc(C(=O)N(CC(C)(C)C)c2cccc(C)n2)c(N2CCC(COc3cc(C(CC(=O)O)C4CC4)c(F)cn3)CC2)c1 (stereo not shown) [Example 274, 3-cyclopropyl-3-(2-((1-(2-((2,2-dimethylpropyl)-(6-methylpyridin-2-yl)carbamoyl)-5-methoxyphenyl)piperidin-4-yl)methoxy)-5-fluoropyridin-4-yl)propanoic acid]
92% | COc1ccc(C(=O)N(CC(C)(C)C)c2cccc(C)n2)c(N2CCC(C(C)Oc3cc(C(CC(=O)O)C4CC4)ccn3)CC2)c1 (stereo not shown) [Example 268, 3-cyclopropyl-3-(2-(1-(1-(2-((2,2-dimethylpropyl)(6-methylpyridin-2-yl)carbamoyl)-5-methoxyphenyl)piperidin-4-yl)ethoxy)pyridin-4-yl)propanoic acid]
